According to patent US6573278B2, “Aryl sulfonamides and analogues thereof and their use in the treatment of neurodegenerative diseases” (Bayer Aktiengesellschaft, priority 1997, dated 2003):
pIC50, pKi: −log10 of the molar value. Counter-ions that a name gives are not always drawn. Marks after values point to notes of the source that are not given here. One block for each compound: values may come before it.

What was measured:
[1] = test system: permanent focal cerebral ischaemia (MCA-O); test: Permanent focal cerebral ischaemia in the rat (MCA-O); format: in vivo; settings: infarct size after 7 days
Description: Permanent Focal Cerebral Ischaemia in the Rat (MCA-O)
Under isoflurane anaesthesia, the median cerebral artery is exposed on one side and the latter and its side branches are irreversibly sealed by means of electrocoagulation. As a result of the intervention a cerebral infarct is formed. During the operation, the body temperature of the animal is kept at 37° C. After wound closure and wearing off of the anaesthesia, the animals are again released into their cage. The administration of substance is carried out according to different time schemes and via different administration routes (i.v., i.p.) after occlusion. The infarct size is determined after 7 days. To do this, the brain is removed, worked up histologically and the infarct volume is determined with the aid of a computer-assisted analysis system.
Activity in the model of permanent focal cerebral ischaemia (MCA-O)

rat CB1 receptor = biological target: T1, rat CB1 receptor (Rattus norvegicus, UniProt P20272); test: CB1 luciferase reporter gene test (CHOluc9 cells, forskolin-stimulated); format: cell-based; settings: CHOluc9 cells with rat CB1, forskolin
T1 construct: contains an open reading frame of 1419 base pairs which corresponds to a protein of 473 amino acids; expressed in transfected cells; host or cells: CHOluc9 cells, stably transfected with plasmid CMV-RH (pRc/CMV)
T1 sequence (P20272 whole entry): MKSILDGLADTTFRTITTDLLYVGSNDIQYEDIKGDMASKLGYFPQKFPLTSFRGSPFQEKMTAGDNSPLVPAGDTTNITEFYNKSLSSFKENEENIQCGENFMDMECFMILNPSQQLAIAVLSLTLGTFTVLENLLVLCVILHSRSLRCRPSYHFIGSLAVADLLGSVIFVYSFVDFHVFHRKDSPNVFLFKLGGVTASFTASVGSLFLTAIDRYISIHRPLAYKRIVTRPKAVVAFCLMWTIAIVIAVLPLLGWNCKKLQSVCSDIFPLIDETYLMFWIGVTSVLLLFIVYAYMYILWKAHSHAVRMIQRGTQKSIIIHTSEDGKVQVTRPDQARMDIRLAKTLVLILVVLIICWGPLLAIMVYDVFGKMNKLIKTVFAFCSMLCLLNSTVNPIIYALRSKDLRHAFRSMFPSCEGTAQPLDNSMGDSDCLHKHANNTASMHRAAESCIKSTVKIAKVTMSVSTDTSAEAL
Description: CB1—Luciferase Reporter Gene Test
1. Cloning of the Rat Cannabinoid Receptor CB1
Total RNA from rat brain (the tissue was taken from freshly killed animals and shock-frozen in liquid nitrogen) was isolated by acidic guanidinium thiocyanate/phenol/chloroform extraction (J. Biol. Chem. 1979, 18, 5294) and converted into cDNA by means of reverse transcriptase and random primers (in each case from Invitrogen). The polymerase chain reaction (PCR, conditions: 4 min 94° C., 1×; 1 min 94° C.; 2 min 53° C.; 1 min 72° C., 50 cycles; 1 min 94° C., 2 min 53° C., 4 min 72° C., 1×) was carried out in a Perkin Elmer thermocycler using the enzyme Taq polymerase (Perkin Elmer); the oligonucleotide primers employed (bases 99 to 122: 5′→3′, “down”; 1556-1575: 3′←5′, “up”) were derived from the published sequence of the rat cannabinoid receptor (Nature 1990, 346, 561) and were synthesized on a DNA synthesizer, model 1380 from Applied Biosystems. One part of the PCR reaction was separated in a 1% strength agarose gel in 1× TBE buffer and then stained with ethidium bromide, only one band having the expected length being visible (approximately 1.5 kb). This PCR product was subcloned into the TA cloning vector (Invitrogen) and the nucleotide sequence of the inserts was determined by the dideoxynucleotide chain termination reaction using T7DNA polymerase (Sequenase, USA/Amersham). The insert has a length of 1477 base pairs and contains an open reading frame of 1419 base pairs which corresponds to a protein of 473 amino acids. The number of base pairs, the position of the open reading frame and the number of amino acids agree with the published sequence. Computer analyses were carried out with the aid of the GCG software suite (Genetic Computer Group). The cDNA insert was subcloned into the expression vector pRc/CMV after partial digestion with HindIII and NotI (Biolabs). This construct (plasmid CMV-RH) was employed for transfection experiments.
2. Stable Transfection of the CHOluc9 Reporter Cells
CHOluc9 cells were cultured in 50% Dulbecco's modified Eagle medium/50% F-12 (DMEM/F12) which contained 10% foetal calf serum (FCS). Transfections were prepared in 6-well plates. 7.5 μg of Qiagen-purified CMV-RH plasmid DNA were added per […] with the DOTAP transfection system, corresponding to the experimental protocol of the manufacturer (Boehringer Mannheim). Transfected cells were selected using 1 mg/ml G418 and individual clones were obtained by limiting dilution in 96-well plates. Cell lines which express the cannabinoid receptor were identified for the inhibition of reporter gene expression after incubation with the cannabinoid receptor agonist, WIN-55,212-2, in the presence of forskolin. Several stable transfected and subcloned cell lines were further characterized by means of RT-PCR, as described under 1.
3. Test Optimization and Pharmacological Characterization of the CHOCB1 Reporter Cell Line
With the aim of high sensitivity and reproducibility, low variance and high suitability for carrying out on the robotic system, the luciferase test was optimized by variation of several test parameters, such as, for example, cell density, duration of the growth phase and the test incubation, forskolin concentration, medium composition. […]

[2] = Rat hypothermia, agonism testing; format: in vivo; settings: i.v.
Description: Five minutes after determination of the basal body temperature via an oesophageal temperature probe, the test substance is administered (i.v.). A control group receives only the solvent for the test substances, likewise i.v. The body temperature is measured 7.5, 15, 30 and 60 minutes after i.v. administration. The group size per dose is 5-7 animals (rats).
Rat hypothermia—Agonism testing

[3] = test system: subdural haematoma in the rat (SDH); test: Subdural haematoma in the rat (SDH); format: in vivo
Description: Subdural Haematoma in the Rat (SDH)
Under anaesthesia, the animal's own blood is injected subdurally on one side An infarct is formed under the haematoma. Substance administration is carried out according to different time schemes and via different administration routes (i.v., i.p.) The determination of the infarct size is carried out as described in the model of permanent focal ischaemia in the rat (MCA-O)
Activity in the model “subdural haematoma in the rat (SDH)”

[4] = biological target: T2, CB1 receptor (rat cortex membranes) (Rattus norvegicus, UniProt P20272); test: Binding studies on rat cortex membranes; settings: read-out: Ki, affinity for the CB1 receptor (rat cortex membranes)
T2 construct: from tissue; host or cells: rat cortex membranes
T2 sequence (P20272 whole entry): as above
Description: Binding Studies on Rat Cortex Membranes
Membrane protein is prepared from different tissues or from cells by standard methods. Buffer, labelled ligand, DMSO or test substance are pipetted together, then 100 μg of protein are added, and the mixture is well mixed and incubated in a water bath at 30° C. for 60 min. After expiry of the incubation time, the reaction is stopped by addition of ice-cold incubation buffer to each tube. After filtering off, washing is carried out with ¾ ml of incubation buffer. The filters are transferred to minivials and the radioactivity is determined in a scintillation counter. Affinity for the CB1 receptor (rat cortex membranes)

[5] = 0.03 mg/kg/h, i.v. continuous infusion directly up to 4 hours after occlusion
[6] = 0.1 mg/kg, i.v. bolus injections directly, 2 and 4 hours after occlusion

Structure (SMILES): O=S(=O)(NCc1ccccc1)c1ccc(Oc2cccc3ccccc23)cc1
- melting point: 144 to 146 °C

Structure (SMILES): CCCCCS(=O)(=O)N(c1ccc(Oc2cccc3c2CCNC3)cc1)S(=O)(=O)CCCCC (as salt: hydrochloride)
- melting point: 162 °C

Structure (SMILES): CCCCS(=O)(=O)Nc1ccc(Oc2cccc3ccccc23)cc1 [Example 1, 1-N-(1-Butylsulfonyl)amino-4-(naphthyl-1-oxy)benzene]
- % Reduction in the infarct volume [1, 5]: 35%
- pIC50 (rat CB1 receptor): 7.82
- ED−1° C., effective dose for 1° C. body temperature reduction [2]: 1.0 ^b) mg/kg
- % Reduction in the infarct volume [3, 6]: 54%
- % Reduction in the infarct volume ([3]; 1.0 mg/kg, i.v. bolus injections directly, 2 and 4 hours after occlusion): (84) %
- pKi [4]: 6.23
- melting point: 108 to 109 °C

Structure (SMILES): O=S(=O)(Cc1ccccc1)Nc1cccc(Oc2cccc3ccccc23)c1 [Example 51]
- % Reduction in the infarct volume [1, 6]: 24%
- pIC50 (rat CB1 receptor): 9.05
- ED−1° C., effective dose for 1° C. body temperature reduction [2]: 0.1 ^b) mg/kg
- % Reduction in the infarct volume ([3]; 0.01 mg/kg/h, i.v. continuous infusion directly up to 4 hours post-trauma): 54%
- pKi [4]: 7.39
- melting point: 139.5 °C

Structure (SMILES): CCCCCS(=O)(=O)Oc1ccc(Oc2cccc3c2CCNC3)cc1
- melting point: 143 °C

Structure (SMILES): O=S(=O)(CCCCl)Nc1ccc(Oc2cccc3ccccc23)cc1 [Example 65]
- % Reduction in the infarct volume ([1]; 0.01 mg/kg/h): (47) %
- % Reduction in the infarct volume [1, 5]: 37%
- pIC50 (rat CB1 receptor): 7.89
- ED−1° C., effective dose for 1° C. body temperature reduction [2]: 1.0 ^b) mg/kg
- % Reduction in the infarct volume [3, 6]: 53%
- % Reduction in the infarct volume ([3]; 0.3 mg/kg/h, i.v. continuous infusion directly up to 4 hours post-trauma): (65) %
- pKi [4]: 6.60
- melting point: 115 °C

Structure (SMILES): O=S(=O)(Cc1ccccc1)Nc1ccc(Oc2cccc3ccccc23)nc1 [Example 33]
- % Reduction in the infarct volume [1, 6]: 33%
- pIC50 (rat CB1 receptor): 8.00
- ED−1° C., effective dose for 1° C. body temperature reduction [2]: 0.6 ^b) mg/kg
- % Reduction in the infarct volume [3, 6]: 42%
- pKi [4]: 6.38
- melting point: 161 to 162 °C

Structure (SMILES): CCCCCS(=O)(=O)Oc1ccc(Oc2cccc3ccccc23)cc1 [Example 99]
- pIC50 (rat CB1 receptor): 8.54
- ED−1° C., effective dose for 1° C. body temperature reduction [2]: 0.6 ^b) mg/kg

Results, then the compound that gave them:

- melting point: 187 °C
Structure (SMILES): CCCCCS(=O)(=O)Nc1ccc(Oc2cccc3c2CCN(CCCC)C3)cc1

- melting point: 135 to 137 °C
Structure (SMILES): CCCCCS(=O)(=O)Nc1ccc(Oc2cccc3c2CC(CO)(CO)C3)cc1

- melting point: 161 °C
Structure (SMILES): CCCCS(=O)(=O)Nc1ccc([S+]([O-])c2cccc3ccccc23)cc1 (stereo not drawn)

- melting point: 180 °C
Structure (SMILES): CCC(=O)Nc1ccc(Oc2ccc(NS(=O)(=O)Cc3ccccc3)cc2)c2ccccc12

- melting point: 113 to 115 °C
Structure (SMILES): CCCNS(=O)(=O)Nc1ccc(Oc2cccc3ccccc23)cc1

- melting point: 95 °C
Structure (SMILES): CCCOS(=O)(=O)Nc1ccc(Oc2cccc3ccccc23)cc1

- melting point: 180 °C
Structure (SMILES): CCCCS(=O)(=O)Nc1ccc(S(=O)(=O)c2cccc3ccccc23)cc1

- melting point: 252 °C
Structure (SMILES): Nc1ccc(Oc2ccc(NS(=O)(=O)Cc3ccccc3)cc2)c2ccccc12 (as salt: hydrochloride)

- melting point: 138 to 139 °C
Structure (SMILES): CCCC[S+]([O-])Nc1ccc(Oc2cccc3ccccc23)cc1 (stereo not drawn)

- melting point: 80 °C
Structure (SMILES): CCCCC(=O)Nc1ccc(Oc2cccc3ccccc23)cc1
